Test results reported in patent US20250304620A1, “ANTIMICROBIAL PEPTIDE AND APPLICATION THEREOF” (priority 2023, published 2025).
In brackets after ≈: the same amount, converted by molar mass. Non-standard residues stand in square brackets, D forms with d. Residues, ends and D or L forms follow the SMILES beside them. d2Nal = N[C@H](Cc1ccc2ccccc2c1)C(=O)O

Experiments:
[1] = Serum stability assay (residual level by RP-HPLC); details: human
[2] = test system: vancomycin-resistant Enterococcus (VRE); format: cell-based
Text: (§1) According to the Standards of Clinical and Laboratory Standards Institute (CLSI) of the USA for antimicrobial drug susceptibility test operation standards, the micronutrient serial twofold dilution method was used further determine MICs of the antimicrobial peptides LV-1 to LV-30 against 5 clinically common drug-resistant bacterial strains. The experiment was repeated 5 times in parallel. […] The tested drug-resistant strains included Methicillin-resistant Staphylococcus aureus (MRSA), carbapenem-resistant Escherichia coli (CREC), vancomycin-resistant Enterococcus (VRE), carbapenem-resistant Pseudomonas aeruginosa (CRPA), and carbapenem-resistant Klebsiella pneumoniae (CRKP).

[3] = test system: carbapenem-resistant Klebsiella pneumoniae (CRKP); format: cell-based; details: carbapenem-resistant (CRKP)
Text: as §1

[4] = test system: carbapenem-resistant Pseudomonas aeruginosa (CRPA); format: cell-based; details: carbapenem-resistant (CRPA)
Text: as §1

[5] = test system: carbapenem-resistant Escherichia coli (CREC); format: cell-based; details: carbapenem-resistant (CREC)
Text: as §1

[6] = test system: Methicillin-resistant Staphylococcus aureus (MRSA); format: cell-based; details: Methicillin-resistant
Text: as §1

[7] = test system: Staphylococcus aureus (NRS 384); details: NRS 384, 3 h
Protocol: Trypsin (250 U/mg, pH=8.0) and AMPs (LV-1 to LV-30) were mixed in a ratio of 1:10 (w/w) and added to a reaction buffer (0.2 M sodium phosphate, 1 mM CaCl2), pH 7.5), and then incubated at 37° C. for 3 h.

[8] = test system: Staphylococcus aureus (NRS 384); assay: microbe, parasite or virus in culture; format: cell-based; details: NRS 384
How it was run: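 CLSI broth microdilution with serial twofold dilutions gave MICs against S. aureus NRS 384, with 5 parallel replicates. Levofloxacin and the AMP Cbf-K16 served as positive controls.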

[9] = test system: Enterococcus ATCC 29212; format: cell-based
Text: (§2) According to the Standards of Clinical and Laboratory Standards Institute (CLSI) of the USA for antimicrobial drug susceptibility test operation standards, the micronutrient serial twofold dilution method was used further determine MICs of 30 AMPs (S/N: LV-1 to LV-30) 10 clinically common sensitive strains and 6 fungi in clinical practice. The experiment was repeated 5 times in parallel.

[10] = test system: Trichophyton ATCC MYA-4438; format: cell-based
Text: as §2

[11] = test system: Pseudomonas aeruginosa ATCC 27853; format: cell-based
Text: as §2

[12] = test system: Candida glabrata ATCC 15126; format: cell-based
Text: as §2

[13] = test system: Staphylococcus aureus ATCC 25923; format: cell-based
Text: as §2

[14] = test system: Corynebacterium ATCC 7715; format: cell-based
Text: as §2

[15] = test system: Klebsiella pneumoniae ATCC 700603; format: cell-based
Text: as §2

[16] = test system: Serratia marcescens ATCC 29021; format: cell-based
Text: as §2

[17] = test system: Candida albicans ATCC MYA-2876; format: cell-based
Text: as §2

[18] = test system: Salmonella typhimurium ATCC 14028; format: cell-based
Text: as §2

[19] = test system: Escherichia coli ATCC 25922; format: cell-based
Text: as §2

[20] = test system: Candida tropicalis ATCC 750; format: cell-based
Text: as §2

[21] = test system: Candida utilis ATCC 9950; format: cell-based
Text: as §2

[22] = test system: Bacillus subtilis ATCC 6633; format: cell-based
Text: as §2

[23] = test system: Candida krusei ATCC 6258; format: cell-based
Text: as §2

[24] = test system: Shigella flexneri ATCC 12022; assay: MIC against clinically common bacterial strain; format: cell-based
Text: as §2

Question: For `CC(=O)N[C@H](CCCNC(=N)N)C(=O)N[C@H](CCCCN)C(=O)N[C@H](CC(C)C)C(=O)N[C@H](CC(C)C)C(=O)N[C@H](Cc1ccccc1)C(=O)N[C@H](CCCNC(=N)N)C(=O)N[C@H](CC(C)C)C(=O)N[C@H](CCCCN)C(=O)N[C@H](Cc1ccccc1)C(=O)N[C@H](CCCNC(=N)N)C(=O)N[C@H](CCCCN)C(N)=O` [LV-2] (Ac-[dR][dK][dL][dL][dF][dR][dL][dK][dF][dR][dK]-NH2), which remaining at 12 h, 0.91 mg/mL [1] is on record?
Answer: 97.4%

Question: What about the “MIC VRE” value [2] of the same compound?
Answer: 2 µg/mL (≈ 1.29 µM)

Question: And the “MIC CRKP” value [3]?
Answer: 2 µg/mL (≈ 1.29 µM)

Question: And the “MIC CRPA” value [4]?
Answer: 8 µg/mL (≈ 5.17 µM)

Question: And the “MIC CREC” value [5]?
Answer: 4 µg/mL (≈ 2.59 µM)

Question: What about the “MIC MRSA” value [6] of the same compound?
Answer: 2 µg/mL (≈ 1.29 µM)

Question: What about the “Trypsin MIC” value [7] of the same compound?
Answer: 1 µg/mL

Question: And the “MIC against Staphylococcus aureus (NRS 384)” value [8]?
Answer: 1 µg/mL (≈ 0.647 µM)

Question: What about the “MIC Enterococcus ATCC 29212” value [9] of the same compound?
Answer: 4 µg/mL (≈ 2.59 µM)

Question: What about the “MIC Trichophyton ATCC MYA-4438” value [10] of the same compound?
Answer: 8 µg/mL (≈ 5.17 µM)

Question: What about the “MIC Pseudomonas aeruginosa ATCC 27853” value [11] of the same compound?
Answer: 1 µg/mL (≈ 0.647 µM)

Question: And the “MIC Candida glabrata ATCC 15126” value [12]?
Answer: 16 µg/mL (≈ 10.3 µM)

Question: And the “MIC Staphylococcus aureus ATCC 25923” value [13]?
Answer: 2 µg/mL (≈ 1.29 µM)

Question: And the “MIC Corynebacterium ATCC 7715” value [14]?
Answer: 4 µg/mL (≈ 2.59 µM)

Question: And the “MIC Klebsiella pneumoniae ATCC 700603” value [15]?
Answer: 4 µg/mL (≈ 2.59 µM)

Question: What about the “MIC Serratia marcescens ATCC 29021” value [16] of the same compound?
Answer: 4 µg/mL (≈ 2.59 µM)

Question: What about the “MIC Candida albicans ATCC MYA-2876” value [17] of the same compound?
Answer: 16 µg/mL (≈ 10.3 µM)

Question: What about the “MIC Salmonella typhimurium ATCC 14028” value [18] of the same compound?
Answer: 2 µg/mL (≈ 1.29 µM)

Question: What about the “MIC Escherichia coli ATCC 25922” value [19] of the same compound?
Answer: 1 µg/mL (≈ 0.647 µM)

Question: What about the “MIC Candida tropicalis ATCC 750” value [20] of the same compound?
Answer: 16 µg/mL (≈ 10.3 µM)

Question: What about the “MIC Candida utilis ATCC 9950” value [21] of the same compound?
Answer: 8 µg/mL (≈ 5.17 µM)

Question: What about the “MIC Bacillus subtilis ATCC 6633” value [22] of the same compound?
Answer: 2 µg/mL (≈ 1.29 µM)

Question: And the “MIC Candida krusei ATCC 6258” value [23]?
Answer: 16 µg/mL (≈ 10.3 µM)

Question: And the “MIC Shigella flexneri ATCC 12022” value [24]?
Answer: 2 µg/mL (≈ 1.29 µM)

Question: With `CC(=O)N[C@H](CCCNC(=N)N)C(=O)N[C@H](CCCCN)C(=O)N[C@H](CC(C)C)C(=O)N[C@H](CC(C)C)C(=O)N[C@H](Cc1ccccc1)C(=O)N[C@H](CCCNC(=N)N)C(=O)N[C@H](CC(C)C)C(=O)N[C@H](CCCCN)C(=O)N[C@H](Cc1ccc2ccccc2c1)C(=O)N[C@H](CCCNC(=N)N)C(=O)N[C@H](CCCCN)C(N)=O` [LV-3] (Ac-[dR][dK][dL][dL][dF][dR][dL][dK][d2Nal][dR][dK]-NH2) as the compound, how does the remaining at 12 h, 0.91 mg/mL [1] read?
Answer: 98.7%

Question: And the “MIC VRE” value [2]?
Answer: 8 µg/mL (≈ 5.01 µM)

Question: What about the “MIC CRKP” value [3] of the same compound?
Answer: 4 µg/mL (≈ 2.51 µM)

Question: What about the “MIC CRPA” value [4] of the same compound?
Answer: 8 µg/mL (≈ 5.01 µM)

Question: What about the “MIC CREC” value [5] of the same compound?
Answer: 4 µg/mL (≈ 2.51 µM)

Question: And the “MIC MRSA” value [6]?
Answer: 2 µg/mL (≈ 1.25 µM)

Question: What about the “Trypsin MIC” value [7] of the same compound?
Answer: 1 µg/mL

Question: What about the “MIC against Staphylococcus aureus (NRS 384)” value [8] of the same compound?
Answer: 1 µg/mL (≈ 0.627 µM)

Question: What about the “MIC Enterococcus ATCC 29212” value [9] of the same compound?
Answer: 4 µg/mL (≈ 2.51 µM)

Question: And the “MIC Trichophyton ATCC MYA-4438” value [10]?
Answer: 16 µg/mL (≈ 10 µM)

Question: And the “MIC Pseudomonas aeruginosa ATCC 27853” value [11]?
Answer: 4 µg/mL (≈ 2.51 µM)

Question: And the “MIC Candida glabrata ATCC 15126” value [12]?
Answer: 16 µg/mL (≈ 10 µM)

Question: And the “MIC Staphylococcus aureus ATCC 25923” value [13]?
Answer: 2 µg/mL (≈ 1.25 µM)

Question: And the “MIC Corynebacterium ATCC 7715” value [14]?
Answer: 4 µg/mL (≈ 2.51 µM)

Question: And the “MIC Klebsiella pneumoniae ATCC 700603” value [15]?
Answer: 2 µg/mL (≈ 1.25 µM)

Question: What about the “MIC Serratia marcescens ATCC 29021” value [16] of the same compound?
Answer: 4 µg/mL (≈ 2.51 µM)

Question: What about the “MIC Candida albicans ATCC MYA-2876” value [17] of the same compound?
Answer: 8 µg/mL (≈ 5.01 µM)

Question: What about the “MIC Salmonella typhimurium ATCC 14028” value [18] of the same compound?
Answer: 1 µg/mL (≈ 0.627 µM)

Question: And the “MIC Escherichia coli ATCC 25922” value [19]?
Answer: 1 µg/mL (≈ 0.627 µM)

Question: And the “MIC Candida tropicalis ATCC 750” value [20]?
Answer: 8 µg/mL (≈ 5.01 µM)

Question: And the “MIC Candida utilis ATCC 9950” value [21]?
Answer: 8 µg/mL (≈ 5.01 µM)

Question: And the “MIC Bacillus subtilis ATCC 6633” value [22]?
Answer: 2 µg/mL (≈ 1.25 µM)

Question: And the “MIC Candida krusei ATCC 6258” value [23]?
Answer: 16 µg/mL (≈ 10 µM)

Question: And the “MIC Shigella flexneri ATCC 12022” value [24]?
Answer: 2 µg/mL (≈ 1.25 µM)
